In brackets after ≈: the same amount, converted by molar mass.
How the values were obtained:
[1] = tested on: Propionibacterium acnes (KCTC 3314); assay: Minimum inhibitory concentration in BHI broth, anaerobic culture, O.D. 660 nm; format: cell-based; conditions: 37° C., 48-72 hours
Description: To measure the antibacterial effect of the inventive extract against Propionibacterium acnes, […] of BHI (brain heart infusion) broth was inoculated with a culture of Propionibacterium acnes (KCTC 3314) at a concentration of 1% (v/v). Then, the inoculated broth was treated with each of the water extract of Anemarrhena asphodeloides or water extract of Aralia elata prepared in Example 1, the water extract of Anemarrhena asphodeloides and Aralia elata prepared in Example 2 and the ethanol extract of Anemarrhena asphodeloides and Aralia elata prepared in Example 3 at varying concentrations of 0.1%, 1%, 5%, 10% and 20%. A negative control group was treated with physiological saline. […] As positive control groups, erythromycin and triclosan, which are known to have antiacne effect, were used.

[2] = tested on: PGE2 production in mouse macrophage cell line Raw264.7; assay: Inhibition of LPS-induced PGE2 production in macrophages (ELISA); format: cell-based; conditions: Raw264.7, extract 1 hour before LPS, LPS 16 hours, read-out: IC50 for inhibition of PEG2 production
Text: The effect of the inventive water or organic solvent extract of Anemarrhena asphodeloides and Aralia elata on the production of PGE2 (prostaglandin E2) in mouse macrophages was examined to measure a concentration at which a 50% inhibitory effect is shown. The PGE2 is a substance synthesized by a COX-2 enzyme in macrophages permeated skin when infected with foreign substances or germs, and the degree of inflammation and the secreted amount of PGE2 are closely connected with each other. Namely, as inflammation becomes more severe, the secretion of PGE2 increases.
Meanwhile, when mouse macrophage cell line Raw264.7 (obtained from Korean Cell Line Bank) is cultured in RPMI medium while it is treated with LPS (lipopolysaccharide) for 16 hours, the production of PGE2 will increase. Thus, 1 hour before the macrophage cell line was treated with LPS, the macrophage cell line was treated with each of the water extract of Anemarrhena asphodeloides or water extract of Aralia elata prepared in Example 1, the water extract of Anemarrhena asphodeloides and Aralia elata prepared in Example 2 and the ethanol extract of Anemarrhena asphodeloides and Aralia elata prepared in Example 3, at varying concentrations of 5 mg/ml, 1 mg/ml, 500 μg/ml, 100 μg/ml, 50 μg/ml and 10 μg/ml, and then measured for the amount of PEG2 produced. […]

SMILES | MIC [1] | IC50 [2]
Oc1cc(Cl)ccc1Oc1ccc(Cl)cc1Cl [triclosan] | 0.001 ppm, v/v | –
CC(=O)Oc1ccccc1C(=O)O [aspirin] | – | 48 µg/mL (≈ 266 µM)
CC[C@H]1OC(=O)[C@H](C)[C@@H](O[C@H]2C[C@@](C)(OC)[C@@H](O)[C@H](C)O2)[C@H](C)[C@@H](O[C@@H]2O[C@H](C)C[C@H](N(C)C)[C@H]2O)[C@](C)(O)C[C@@H](C)C(=O)[C@H](C)[C@@H](O)[C@]1(C)O [erythromycin] | 0.0005 ppm, v/v | –
